Source: patent US9045461B2, “Phenyl-heteroaryl derivatives and methods of use thereof” (TransTech Pharma, LLC, priority 2010, dated 2015)
Where a name gives a salt, the structure may show the parent alone.

Experiments:
[1] = target: T1, sRAGE binding to β-amyloid (Homo sapiens, UniProt Q15109); test: RAGE binding assay (ELISA), β-amyloid as the RAGE ligand; settings: compounds tested in hydrochloride salt form, concentration at which 50% signal has been inhibited
T1 construct: extracellular domain can be isolated by proteolysis of RAGE to generate soluble RAGE (sRAGE) comprised of the V and C domains
Protocol: (§1) The following assay method may be used to identify compounds of Formula (I) or pharmaceutically acceptable salts thereof which are useful as inhibitors of binding of physiological RAGE ligands, such as S100b and β-amyloid, to RAGE.
(§2) S100b, β-amyloid, or CML (500 ng/100 μL/well) in 100 mM sodium bicarbonate/sodium carbonate buffer (pH 9.8) is loaded onto the wells of a NUNC Maxisorp flat bottom 96-well microtitre plate. The plate is incubated at 4° C. overnight. The wells are aspirated and treated with 50 mM imidazole buffer saline (pH 7.2) (with 5 mM CaCl2/MgCl2) containing 1% bovine serum albumin (BSA) (300 μL/well) for 1 h at RT. The wells are aspirated.
(§3) Test compounds are dissolved in nanopure water (concentration: 10-100 μM). DMSO may be used as co-solvent. 25 μL of test compound solution in 4% DMSO is added, along with 75 μL sRAGE (6 nM FAC) to each well and samples are incubated for 1 h at 37° C. The wells are washed several times with 155 mM NaCl pH 7.2 buffer saline and are soaked for several seconds between each wash.
(§4) Non-radioactive detection is performed by adding:
(§5) 10 μL Biotinylated goat F(ab′)2 Anti-mouse IgG. (8.0×10-4 mg/mL, FAC), 5 μL Alk-phos-Streptavidin (3×10-3 mg/mL FAC), 0.42 μL per 5 mL Monoclonal antibody for sRAGE (FAC 6.0×10-3 mg/mL) to 5 mL 50 mM imidazole buffer saline (pH 7.2) containing 0.2% bovine serum albumin and 5 mM CaCl2. The mixture is incubated for 30 minutes at RT.
(§6) 100 μL of complex is added to each well and incubation is allowed to proceed at rt for 1 h. Wells are washed several times with wash buffer and soaked several seconds between each wash. 100 μL 1 mg/mL (pNPP) in 1 M diethanolamine (pH adjusted to 9.8 with HCl) is added. Color is allowed to develop in the dark for 30 min to 1 h at rt. The reaction is quenched with 10 μL of stop solution (0.5-1.0 N NaOH in 50% ethanol) and the absorbance is measured spectrophotometrically with a microplate reader at 405 nm.
(§7) The IC50 (μM) value in the ELISA assay represents the concentration of compound at which 50% signal has been inhibited.

sRAGE binding to S100b = target: T2, sRAGE binding to S100b (Homo sapiens, UniProt Q15109); test: RAGE binding assay (ELISA), S100b as the RAGE ligand; settings: compounds tested in hydrochloride salt form, concentration at which 50% signal has been inhibited
T2 construct: extracellular domain can be isolated by proteolysis of RAGE to generate soluble RAGE (sRAGE) comprised of the V and C domains
Protocol: as §1, §2, §3, §4, §5, §6, §7

T2 sequence (Q15109 23-342 limits assumed): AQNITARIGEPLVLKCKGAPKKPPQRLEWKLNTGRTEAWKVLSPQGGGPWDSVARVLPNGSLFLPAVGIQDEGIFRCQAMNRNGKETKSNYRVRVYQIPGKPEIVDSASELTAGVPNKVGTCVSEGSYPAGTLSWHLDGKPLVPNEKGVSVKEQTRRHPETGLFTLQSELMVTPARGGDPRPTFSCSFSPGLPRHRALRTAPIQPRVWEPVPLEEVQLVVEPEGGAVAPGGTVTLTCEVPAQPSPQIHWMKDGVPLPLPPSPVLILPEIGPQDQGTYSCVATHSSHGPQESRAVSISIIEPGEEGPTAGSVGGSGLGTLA
T1 sequence (Q15109 23-342 limits assumed): as above

Row | SMILES | IC50 [1] [µM] | IC50 (sRAGE binding to S100b) [µM]
1 | CCCCc1nnc(OC[C@H]2CN(C)CC[C@@H]2O)cc1-c1ccc(OC2CCCCC2)cc1 (racemic) [Example 47, (±)-trans-3-[6-Butyl-5-(4-cyclohexyloxy-phenyl)-pyridazin-3-yloxymethyl]-1-methyl-piperidin-4-ol dihydrochloride] | 2.5 | 2.93
2 | CCCCc1nnc(OC2CCN(C)CC2)cc1-c1ccc(OCC2CCOCC2)cc1 [Example 54, 3-butyl-6-(1-methyl-piperidin-4-yloxy)-4-[4-(tetrahydro-pyran-4-ylmethoxy)-phenyl]-pyridazine dihydrochloride] | 5.45 | 3.65
3 | CCCCc1nnc(O[C@@H]2CCN(C)C2)cc1-c1ccc(OC2CCCCC2)cc1 [Example 29, 3-Butyl-4-(4-cyclohexyloxy-phenyl)-6-((R)-1-methyl-pyrrolidin-3-yloxy)-pyridazine dihydrochloride] | 2.36 | 1.72
4 | CCCCc1nnc(C(=O)N2CCC(O)C(CN(C)C)C2)cc1-c1ccc(OC2CCCCC2)cc1 (centres unmarked) [Example 106, [6-Butyl-5-(4-cyclohexyloxy-phenyl)-pyridazin-3-yl]-(3-dimethylaminomethyl-4-hydroxyoxy-piperidin-1-yl)-methanone dihydrochloride] | 1.75 | 2.18
5 | CCCCc1nnc(C(=O)N[C@@H]2CN3CCC2CC3)cc1-c1ccc(OCc2ccccc2)cc1 [Example 82, 5-(4-Benzyloxy-phenyl)-6-butyl-pyridazine-3-carboxylic acid (S)-(1-aza-bicyclo[2.2.2]oct-3-yl)-amide dihydrochloride] | 1.29 | 1.27
6 | CCCCc1nnc(OCC2(O)CCN(C)CC2)cc1-c1ccc(OCc2ccccc2)cc1 [Example 11, 4-[5-(4-Benzyloxy-phenyl)-6-butyl-pyridazin-3-yloxymethyl]-1-methyl-piperidin-4-ol dihydrochloride] | 3.23 | 5.74
7 | CCCCc1nnc(C(=O)N2CCO[C@@H](CN(C)C)C2)cc1-c1ccc(OC2CCCCC2)cc1 [Example 97, [6-Butyl-5-(4-cyclohexyloxy-phenyl)-pyridazin-3-yl]-((S)-2-dimethylaminomethyl-morpholin-4-yl)-methanone dihydrochloride] | 1.72 | 1.89
8 | CCCCc1nnc(C(=O)NCC2(OC)CCN(C)CC2)cc1-c1ccc(OC2CCCCC2)cc1 [Example 89, 6-Butyl-5-(4-cyclohexyloxy-phenyl)-pyridazine-3-carboxylic acid (4-methoxy-1-methyl-piperidin-4-ylmethyl)-amide dihydrochloride] | 2.01 | 2.73
9 | CCCCc1nnc(C(=O)NCC2(F)CCN(C)CC2)cc1-c1ccc(OC2CCCCC2)cc1 [Example 109, 6-Butyl-5-(4-cyclohexyloxy-phenyl)-pyridazine-3-carboxylic acid (4-fluoro-1-methyl-piperidin-4-ylmethyl)-amide dihydrochloride] | 5.83 | 5.84
10 | CCCCc1nnc(OC2CCN(C)CC2)cc1-c1ccc(OC2CCCCC2)c(NC(C)=O)c1 [Example 62, N-{5-[3-butyl-6-(1-methyl-piperidin-4-yloxy)-pyridazin-4-yl]-2-cyclohexyloxy-phenyl}-acetamide dihydrochloride] | 5 | 3.63
11 | CCCCc1nnc(OC[C@H]2CCN(C)C[C@H]2O)cc1-c1ccc(OC2CCCCC2)cc1 (racemic) [Example 24, (±)-cis-4-[6-Butyl-5-(4-cyclohexyloxy-phenyl)-pyridazin-3-yloxymethyl]-1-methyl-piperidin-3-ol dihydrochloride] | 2.9 | 2.64
12 | CCCCc1nnc(OC2CCN(C)CC2)cc1-c1ccc(OCC2CCN(C(C)=O)CC2)cc1 [Example 55, 1-(4-{4-[3-butyl-6-(1-methyl-piperidin-4-yloxy)-pyridazin-4-yl]-phenoxymethyl}-piperidin-1-yl)-ethanone dihydrochloride] | 9.18 | 3.68
13 | CCCCc1nnc(O[C@H]2CC3C[C@@H](O)C(C2)N3C)cc1-c1ccc(OC2CCCCC2)cc1 (stereo partly drawn) [Example 31, (3S,6R)-3-[6-Butyl-5-(4-cyclohexyloxy-phenyl)-pyridazin-3-yloxy]-8-methyl-8-aza-bicyclo[3.2.1]octan-6-ol dihydrochloride] | 1.18 | 0.89
14 | CCCCc1nnc(OC2CCN(C)CC2)cc1-c1ccc(OC2CCCCC2)c(N2CCCC2=O)c1 [Example 68, 1-{5-[3-Butyl-6-(1-methyl-piperidin-4-yloxy)-pyridazin-4-yl]-2-cyclohexyloxy-phenyl}-pyrrolidin-2-one dihydrochloride] | 2.49 | 2.04
15 | CCCCc1nnc(OC2CCN(C)CC2)cc1-c1ccc(OCc2cccnn2)cc1 [Example 53, 3-butyl-6-(1-methyl-piperidin-4-yloxy)-4-[4-(pyridazin-3-ylmethoxy)-phenyl]-pyridazine trihydrochloride] | 2.02 | 2.51
16 | CCCCc1nnc(OC2CCN(C)CC2)cc1-c1ccc(OC2CCCCC2)c(-c2ncco2)c1 [Example 65, 3-Butyl-4-(4-cyclohexyloxy-3-oxazol-2-yl-phenyl)-6-(1-methyl-piperidin-4-yloxy)-pyridazine dihydrochloride salt] | 1.78 | 2.12

Compounds with a lower IC50 [1], results first:

Row | IC50 [1] [µM] | IC50 (sRAGE binding to S100b) [µM] | SMILES
17 | 1.11 | 1.77 | CCCCc1nnc(C(=O)NCC2CCN(C)CC2)cc1-c1ccc(OC2CCCCC2)cc1 [Example 103, 6-Butyl-5-(4-cyclohexyloxy-phenyl)-pyridazine-3-carboxylic acid (1-methyl-piperidin-4-ylmethyl)-amide dihydrochloride]
18 | 0.97 | 1.08 | CCCCc1nnc(C(=O)N(C)C2CCN(C)CC2)cc1-c1ccc(OC2CCCCC2)cc1 [Example 114, 6-Butyl-5-(4-cyclohexyloxy-phenyl)-pyridazine-3-carboxylic acid methyl-(1-methyl-piperidin-4-yl)-amide dihydrochloride]
19 | 0.87 | 0.64 | CCCCc1nnc(OC2CCN(C)CC2)cc1-c1ccc(OC2CCC(F)(F)CC2)cc1 [Example 19, 3-Butyl-4-[4-(4,4-difluoro-cyclohexyloxy)-phenyl]-6-(1-methyl-piperidin-4-yloxy)-pyridazine dihydrochloride]
20 | 0.86 | 1.17 | CCCCc1nnc(C(=O)NCC2=CCN(C)CC2)cc1-c1ccc(OC2CCCCC2)cc1 [Example 108, 6-Butyl-5-(4-cyclohexyloxy-phenyl)-pyridazine-3-carboxylic acid (1-methyl-1,2,3,6-tetrahydro-pyridin-4-ylmethyl)-amide dihydrochloride]
21 | 0.79 | 0.73 | CCCCc1nnc(OC2CCN(C)CC2)cc1-c1ccc(OC2CCCCC2)c(-c2cnn(C)c2)c1 [Example 69, 3-Butyl-4-[4-cyclohexyloxy-3-(1-methyl-1H-pyrazol-4-yl)-phenyl]-6-(1-methyl-piperidin-4-yloxy)-pyridazine dihydrochloride]
22 | 0.76 | 0.74 | CCCCc1nnc(OC2CCN(C)CC2)c(C(F)(F)F)c1-c1ccc(OC2CCCCC2)cc1 [Example 58, 3-butyl-4-(4-cyclohexyloxy-phenyl)-6-(1-methyl-piperidin-4-yloxy)-5-trifluoromethyl-pyridazine dihydrochloride]
23 | 0.74 | 0.74 | CCCCc1nnc(OC[C@H]2CCN(C)C[C@H]2OC)cc1-c1ccc(OC2CCCCC2)cc1 (racemic) [Example 35, (±)-cis-3-Butyl-4-(4-cyclohexyloxy-phenyl)-6-(3-methoxy-1-methyl-piperidin-4-ylmethoxy)-pyridazine dihydrochloride]
24 | 0.66 | 0.68 | CCCCc1nnc(OC2CCN(C)CC2)cc1-c1ccc(OC2CCCCC2)c(NC(=O)NC(C)(C)C)c1 [Example 77, 1-tert-Butyl-3-{5-[3-butyl-6-(1-methyl-piperidin-4-yloxy)-pyridazin-4-yl]-2-cyclohexyloxy-phenyl}-urea dihydrochloride]
25 | 0.56 | 0.97 | CCCCc1nnc(C(=O)N[C@@H]2CCN(C)C[C@@H]2OC)cc1-c1ccc(OC2CCCCC2)cc1 (stereo in doubt) [Example 107, 6-Butyl-5-(4-cyclohexyloxy-phenyl)-pyridazine-3-carboxylic acid (3-methoxy-1-methyl-piperidin-4-yl)-amide dihydrochloride]
